{
  "source": "patent US20080004295A1",
  "about": "“NOVEL COMPOUNDS” (priority 2005, published 2008)",
  "origin": "cited, not measured here",
  "key": {"PGD2": {"system": "PGD2", "conditions": "dosed intranasally, phase I/II study, allergic rhinitis"}, "[1]": {"conditions": "phase II clinical trial, allergic rhinitis"}},
  "data": [
    {"smiles": "Oc1cccc(Nc2ncc(F)c(Nc3cccc(O)c3)n2)c1", "note": "[Example R112]", "values": [
      {"measurement": "change in PGD2", "setting": "PGD2", "value": "statistically significant decrease"},
      {"measurement": "safety across a range of indicators", "setting": "PGD2", "value": "safe"},
      {"measurement": "efficacy versus placebo", "setting": "[1]", "value": "lack of efficacy"}
    ]}
  ]
}
